Results published in paper PMC4695825 (Pharmaceutics, 2015).
Where a name gives a salt, the structure may show the parent alone. Read-outs that look alike come from different tables or passages of the source. Each block holds one molecule with its values, some of them ahead of it.

Tests used:
[1] = design: method as in PMID 24333401; settings: nanostructured lipid carrier; cited from earlier work
[2] = mean ± SD, n = 6; for Microneedle cumulative amount after 12 h (Qs): skin treated with 500 μm microneedle roller
Protocol: Frozen porcine ears were obtained from Animal Technologies, Tyler, TX, USA. Skin pieces were thawed at ambient temperatures and carefully shaved using an electric clipper (Wahl, Sterling, IL, USA). Full thickness skin was prepared by removing the subcutaneous fat from the underlying cartilage. The average thickness of the skin membrane was measured with a Digimatic Micrometer (Mitutoyo, Tokyo, Japan). Skin samples were maintained at −20 °C for storage. Prior to experiments, the skin samples were thawed at room temperature before use.
In vitro permeation experiments were conducted using a six-celled, static, vertical Franz diffusion cell system (PermeGear, Hellertown, PA, USA). Each cell contained a top donor compartment and a lower receptor compartment with a magnetic stirrer, sampling port, and water jacket maintained at 37 °C to simulate normal body temperature by Thermo Haake DC10-P5/U heating circulator bath (ThermoFisher Scientific, Waltham, MA, USA). The receptor compartment diffusion area was 1.77 cm^2 with a volume capacity of 12 mL filled with PBS. Skin samples obtained from different pigs were placed between the upper donor chamber and lower receiver chamber of the vertical Franz diffusion cells, which were sealed using high-vacuum grease (Dow Corning, Midland, MA, USA) and a metal clamp. Solid microneedle rollers were used to created microchannels in porcine skin. Full thickness microneedle-treated porcine skins were mounted on three-receptor compartments and untreated porcine skins were placed on the remaining three-receptor compartments to serve as controls, and diffusion experiments for the two drugs were replicated six times (n = 6). The microneedle roller was applied fifteen times to each skin sample to increase the number of microconduits for enhanced transdermal drug delivery. […] The sampling ports were also covered with parafilm to further reduce evaporation. […] Receptor chambers were replenished with an equal volume of fresh, pre-warmed PBS maintained at 37 °C. All samples were stored at 4 °C until analysis by LC–MS. The cumulative amount of each drug permeating the excised full thickness porcine skin was plotted as a function of time. The slope and intercept of the linear portion were derived by linear regression analysis. Steady state flux was calculated from the linear portion of the cumulative amount versus time curve.
Chromatographic separation was carried out on the reverse-phase Agilent Zorbax Eclipse Plus C18 (100 mm × 2.1 mm, 3.5 microns) analytical column, which was protected by a guard column with the same stationary phase (12.5 mm × 4.6 mm, 5 microns) (Agilent Technologies, Palo Alto, CA, USA). The column temperature was set at 40 °C, and the autosampler temperature was set at 4 °C. The mobile phase consisted of 0.1% formic acid in water (solvent A), and 0.1% formic acid in methanol (solvent B). […] A post-run time of 2 min for mobile phase equilibration was used after each sample run. Calibration curve standards were freshly prepared in PBS buffer solution. The MS data were collected in positive electro spray ionization tandem mass spectrometry (ESI MS/MS) mode. Nebulizer temperature was 350 °C, nebulizer pressure was 50 psi, and the drying gas flow rate was 10.0 L/min. Compounds were quantified in positive ESI MS/MS mode by quantifying the specific product ion.
Flux values were calculated using the steady-state portion of the cumulative amount versus time curves. Six replicates were used for the study.

[3] = cited from earlier work
[4] = cited from earlier work; for logP / water solubility: no reference given
[5] = design: method as in PMID 20188808; settings: 400 μm needle length, cited from earlier work

SMILES: Cc1cc2c(s1)Nc1ccccc1N=C2N1CCN(C)CC1 [olanzapine]
Change in transdermal permeation rate after microneedle device pretreatment [1]: slight but not statistically significant increase

Microneedle-facilitated transdermal flux ([2]; full thickness porcine ear skin treated with 500 μm stainless steel microneedle roller, 37 °C, donor amantadine ~50 mg/mL or pramipexole ~1 mg/mL, steady state): 134.04 ± 0.98 μg/cm^2/h | Microneedle cumulative amount after 12 h (Qs) ([2]; 12 h, listed as Pramipexole): 1583.43 ± 72.99 μg/cm^2 | Microneedle cumulative amount after 12 h (Qs) ([2]; 12 h, listed as pramipexole): 1583.43 μg/cm^2 | Passive (control) transdermal flux ([2]; untreated full thickness porcine ear skin, 37 °C, donor amantadine ~50 mg/mL or pramipexole ~1 mg/mL, steady state): 134.83 ± 13.66 μg/cm^2/h | Passive (control) cumulative amount after 12 h (Qs) ([2]; untreated full thickness porcine ear skin, 12 h): 1607.86 ± 35.77 μg/cm^2
SMILES: CCCN[C@H]1CCc2nc(N)sc2C1 [pramipexole dihydrochloride]
pharmacokinetic half-life [3]: 6 to 8 h | logP [4]: 1.2 | water solubility [4]: > 20 mg/mL | octanolphosphate buffer partition coefficient ([4]; pH 7.4): 0.135

SMILES: NC12CC3CC(CC(C3)C1)C2 [amantadine hydrochloride, Amantadine hydrochloride]
pharmacokinetic half-life [3]: 10 h | partition coefficient [4]: 2.44 | logP [4]: 2.4 | water solubility [4]: 50 mg/mL

SMILES: Nc1nc2c(ncn2COCCO)c(=O)[nH]1 [acyclovir]
Flux enhancement after microneedle array pretreatment ([5]; 2000 needles/cm^2): significant enhancement | Flux enhancement after microneedle array pretreatment ([5]; 5625 needle/cm^2): lower enhancement
